In PubChem BioAssay (NCI):
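48-hour exposure; five concentrations; linearly interpolated endpoints. TGI: concentration producing complete growth inhibition.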 Where a SMILES comes first, the peptide text is derived from it. [ ]: non-standard residue; d: D form.

Columns and labels:
Assay in all cases: NCI tumour cell line growth inhibition, 48 h
DMS 114 small cell lung = test system: DMS 114 small cell lung
DMS 273 small cell lung = test system: DMS 273 small cell lung
LXFL 529 NSCLC = test system: LXFL 529 NSCLC
RPMI-8226 leukemia = test system: RPMI-8226 leukemia
SN12K1 renal = test system: SN12K1 renal
P388/ADR leukemia = test system: P388/ADR leukemia
XF 498 CNS = test system: XF 498 CNS
P388 leukemia = test system: P388 leukemia
MDA-N = test system: MDA-N
786-0 renal = test system: 786-0 renal
BT-549 breast = test system: BT-549 breast
T-47D breast = test system: T-47D breast

Row | SMILES | TGI (DMS 114 small cell lung) [µM] | TGI (DMS 273 small cell lung) [µM] | TGI (LXFL 529 NSCLC) [µM] | TGI (RPMI-8226 leukemia) [µM] | TGI (SN12K1 renal) [µM] | TGI (P388/ADR leukemia) [µM] | TGI (XF 498 CNS) [µM] | TGI (P388 leukemia) [µM] | TGI (MDA-N) [µM] | TGI (786-0 renal) [µM] | TGI (BT-549 breast) [µM] | TGI (T-47D breast) [µM]
1 | CCn1cnnc1-c1nsc2ccccc12 | > 100 | > 100 | > 100 | > 100 |  |  |  |  |  |  |  | 
2 | CC1=CC2c3cccc4[nH]cc(c34)CC2N(C)C1 (stereo not given) | > 100 | > 100 |  | > 100 | > 31.6 | > 73.1 | 99.1 | > 100 |  |  |  | 
3 | CC(C)NC(=O)OCc1c2c(n(C)c1COC(=O)NC(C)C)-c1ccccc1CC2 | 17 | 27.3 |  | 17.3 | 24.4 | 5.27 | 28.2 |  |  |  |  | 
4 | CC(C)C[C@H](NC(=O)[C@H](CC(C)C)NC(=O)[C@@H](Cc1c[nH]c2ccccc12)NC(=O)[C@H](Cc1ccccc1)NC(=O)[C@@H](Cc1c[nH]c2ccccc12)NC(=O)[C@H](CCC(N)=O)NC(=O)[C@H](CCC(N)=O)NC(=O)[C@H]1CCCN1C(=O)[C@@H](N)CCCCN)C(N)=O (H-K[dP]QQ[dW]F[dW]LL-NH2) |  | > 100 |  | > 100 | > 100 | > 100 | > 100 | > 100 |  |  |  | 
5 | Cc1ccc2c(=O)c3ccccc3sc2c1 |  | > 100 | > 100 | > 100 |  |  |  |  |  |  |  | 
6 | CC(Cl)CC(=O)OCC1CCCN2CCCCC12 (stereo not given) |  |  |  | > 100 |  |  |  |  | > 100 | > 100 | > 100 | > 100
7 | O=C(O)C1CCCCN1c1ccccc1[N+](=O)[O-] (stereo not given) | > 100 | > 100 | > 100 | > 100 |  |  | > 100 |  |  |  |  | 
8 | O=[N+]([O-])c1ccc(NNN=Nc2ccc(-c3nc4ccccc4s3)cc2)c([N+](=O)[O-])c1 |  |  |  |  |  |  |  |  | 35.3 | 50.6 | 58.7 | > 100
9 | CC1=C(C)SC(=C2Sc3nc(O)[nH]c(=O)c3S2)S1 |  |  |  | > 100 |  |  |  |  |  | > 100 | > 100 | 
10 | CC(=O)Nc1cccc(N=NN(C)C)c1 | > 100 | > 100 |  | > 100 | > 100 | > 100 | > 100 | > 100 |  |  |  | 
11 | O=c1oc2cc(O)ccc2c(O)c1Cc1c(O)c2ccc(O)cc2oc1=O |  |  |  |  |  |  |  |  | > 100 |  | > 100 | > 100
12 | O=c1cc(-c2ccccc2)[nH]c2nccn12 |  |  |  | > 10 |  |  |  |  | > 10 |  |  | > 10
13 | C[C@@H]1CC[C@@]2(OC1)O[C@H]1C[C@H]3[C@@H]4CC[C@H]5C[C@@H](OC6OC(CO)C(OC7OC(CO)C(O)C(OC8OCC(O)C(O)C8O)C7OC7OC(CO)C(O)C(O)C7O)C(O)C6O)[C@H](O)C[C@]5(C)[C@H]4CC[C@]3(C)[C@H]1[C@@H]2C (stereo not given in full) |  |  |  | 30.1 |  |  |  |  | 28.3 |  | 7.47 | 28
